The record followed here is PubChem BioAssay AID1959 (Broad Institute, 2009).

Calls of active or inactive are those of the source.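 How the source made its calls: active means growth-inhibition EC50 no more than tenfold above the top tested dose; inconclusive means flat fit between 30% and 70% inhibition, or unreliable fit; inactive means EC50 more than tenfold above the top tested dose.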

This assay deals with E. coli NEB5alpha growth, BacTiter-Glo luminescence, 4 h. The assay can be described thus: antibacterial activity against E. coli NEB5alpha – luminescence, counter-screen for MEX-5/POS-1 RNA-binding inhibitor project, dose response (AID 1959;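 further: pUC19-transformed ampicillin-resistant cells grown in LB with ampicillin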). (In general: A counterscreen serves to expose hits that act by an unwanted route or on another target.)
Regarding `O=C(O)C1Nc2c(C(F)(F)F)ccc(Cl)c2C2C=CCC12` (configuration not stated), the EC50 (in general, the concentration needed to bring the measured effect to its halfway point) was > 11 µM (inactive).
In the case of `Cc1ccc(/C=C2\Oc3c(ccc(O)c3CN3CCN(CCO)CC3)C2=O)cc1` it was > 11 µM (inactive); in that of `Cc1cc(/C=C(\C#N)C(=O)Nc2ccccc2)c(C)n1-c1ccc(C(=O)O)cc1`, > 11 µM (inactive); in that of `COc1cc2c3nnc(-c4ccccc4)c-3cn(Cc3ccccc3F)c2cc1OC`, > 11 µM (inactive).
In the case of `O=C(O)c1cc(-c2ccc(/C=N/Nc3ccc([N+](=O)[O-])cn3)o2)ccc1Cl` it was > 11 µM (inactive); in that of `N=c1c(C(=O)NCC2CCCO2)cc2c(=O)n3ccccc3nc2n1Cc1cccnc1` (configuration not stated), > 11 µM (inactive); in that of `N#CC1=C(N)OC2=C(C(=O)CC(c3ccco3)C2)C1c1ccc(OCc2c(F)cccc2Cl)cc1` (configuration not stated), > 11 µM (inactive).
The same measure for `CCN(CC)CCN=Cc1c(O)n(Cc2ccccc2)c(=O)[nH]c1=O`: > 11 µM (inactive); for `O=C(NNC(=O)c1cnccn1)c1cccc([N+](=O)[O-])c1`: > 11 µM (inactive); for `Cc1cc(/C=N/NC(=O)c2cccc(N(C)C)c2)c(C)n1-c1cc(C(=O)O)cc(C(=O)O)c1`: > 11 µM (inactive).
Turning to `CNc1c(N)n(Cc2ccccc2)c(=O)[nH]c1=O`, the EC50 was > 11 µM (inactive).
`Cc1ccc(/C=C2\C(=O)NC(=S)N(c3ccc(F)cc3)C2=O)o1`: the EC50 was > 11 µM (inactive).
In the case of `CC(=O)C1=C(c2cccc([N+](=O)[O-])c2)N(C(C)=O)n2c(C)nnc2S1` it was > 11 µM (inactive); in that of `O=C(O)c1cccc(-n2cccc2C=C2C(=O)c3ccccc3C2=O)c1`, > 11 µM (inactive).
In the case of `CCOC(=O)c1cnc(-n2nc(C)cc2C)nc1NNc1nc(C)cc(C)n1` it was > 11 µM (inactive); in that of `CCN(CC)c1ccc(N=Cc2c(O)n(-c3ccc(OC)cc3)c(=O)[nH]c2=O)cc1`, > 11 µM (inactive); in that of `COC(=O)C1=NN(C(=O)c2ccc(C)cc2)C(O)(c2ccc(Cl)cc2)C1` (configuration not stated), > 11 µM (inactive).
Regarding `O=c1[nH]c2ccc([N+](=O)[O-])cc2nc1/C=C(\O)c1ccccc1`, the EC50 is > 11 µM (inactive).
The same measure for `COC(=O)c1cccc(-n2c(C)cc(C=O)c2C)c1C`: > 11 µM (inactive); for `COc1ccc(C2CC(=O)C(C=NCCCO)=C(O)C2)cc1` (configuration not stated): > 11 µM (inactive); for `O=C(c1coc(=O)c(Br)c1)N1CCCc2ccccc21`: > 11 µM (inactive).
The same measure for `CC(=C\c1ccco1)/C=C1/SC(=S)N(CC(=O)O)C1=O`: > 11 µM (inactive); for `Cn1c(O)c(/C=C2\C=Nc3ccccc32)c(=O)n(C)c1=O`: > 11 µM (inactive); for `COc1ccc(C2=CC3=C(Br)C(=O)C(C)(OC(=O)c4ccc(Cl)nc4)C(=O)C3=CO2)cc1` (configuration not stated): > 11 µM (inactive).
The same measure for `CCOC(=O)C1=C(C)N=c2s/c(=C/c3ccc(OCC(=O)O)cc3)c(=O)n2C1c1ccc(OC)cc1OC` (configuration not stated): > 11 µM (inactive); for `N#Cc1c(C#N)c(-c2ccccc2)n(-c2ccc(C(=O)O)cc2)c1N`: > 11 µM (inactive); for `COC(=O)c1ccc(-n2c(C)cc(/C=N/Nc3nc(C)cc(=O)[nH]3)c2C)cc1`: > 11 µM (inactive).
`Cc1[nH][nH]c(=O)c1N=Nc1ccc(S(N)(=O)=O)cc1`: the EC50 was > 11 µM (inactive).
On to `O=C(Cn1cc(C=C2C(=O)NC(=O)NC2=O)c2ccccc21)NCC1CCCO1` (configuration not stated), for which the EC50 was > 11 µM (inactive).
In the case of `COc1ccc(C2C(C(=O)c3cccs3)=C(O)C(=O)N2c2nnc(C)s2)cc1OC` (configuration not stated) it was > 11 µM (inactive).
In the case of `CC1(C)CC(=O)C2=C(C1)OC(N)=C(C#N)C2c1cc2c(cc1[N+](=O)[O-])OCO2` (configuration not stated) it was > 11 µM (inactive).
In the case of `C=CC1=C(C(=O)O)N2C(=O)[C@@H](NC(=O)/C(=N\O)c3csc(N)n3)[C@H]2SC1` (stereo in doubt) it was 0.521 µM; in that of `CC(=O)N=c1c(C#N)cc2c(=O)n3cccc(C)c3nc2n1CCCOC(C)C`, > 11 µM (inactive); in that of `Cc1cc(/C=C2\C(=O)NC(=O)N(C)C2=O)c(C)n1-c1ccc2c(c1)OCO2`, > 11 µM (inactive).
For the molecule `Cc1ccc(/C(O)=C/c2nc3cc(C)ccc3oc2=O)cc1`, the EC50 was > 11 µM (inactive).
The same measure for `Cc1cc(/C=C2\C(=O)NC(=O)N(Cc3ccco3)C2=O)c(C)n1-c1ccc(C(=O)O)cc1`: > 11 µM (inactive); for `CC(=O)C1=C(c2ccccc2)NC(=O)NC1c1ccc(O)c(O)c1` (configuration not stated): > 11 µM (inactive).
On to `NC(=O)c1cccc(N=Cc2cc(Cl)cc(Cl)c2O)c1`, for which the EC50 was > 11 µM (inactive).
For the molecule `O=C(/C=C/c1ccc([N+](=O)[O-])s1)N1CCCC1`, the EC50 is > 11 µM (inactive).
In the case of `CCOc1cccc(C2C(C(=O)c3ccc(C)o3)=C(O)C(=O)N2c2nccs2)c1` (configuration not stated) it was > 11 µM (inactive); in that of `Cn1c(O)c(C=NCCCCCCCCCCC(=O)O)c(=O)n(C)c1=O`, > 11 µM (inactive).
Regarding `CCOC1(OCC)N=C(N)C2(C#N)C(c3ccc(NC(C)=O)cc3)C12C#N` (configuration not stated), the EC50 was > 11 µM (inactive).
The same measure for `COc1cc(/C=N\Nc2ccc([N+](=O)[O-])cc2)ccc1OCC(=O)Nc1ccc(C)c(C)c1`: > 11 µM (inactive); for `O=C(O)c1ccc(-n2cccc2/C=C2/NC(=O)N(c3ccccc3)C2=O)cc1`: > 11 µM (inactive).
The same measure for `O=c1[nH]c(=O)n(Cc2ccccc2)c(O)c1C=Nc1ccc(CN2CCOCC2)cc1`: > 11 µM (inactive); for `CN1C(=O)C(=Cc2sc(=O)n(-c3ccccc3)c2N2CCCCC2)C(=O)N(C)C1=O`: > 11 µM (inactive); for `Cc1ccccc1-n1c(O)c(/C=N/NC(=O)c2ccccc2O)c(=O)[nH]c1=S`: > 11 µM (inactive).
Take `NC1=NC(=O)/C(=C/c2ccc(-c3ccc(S(N)(=O)=O)cc3)o2)S1`: the EC50 is > 11 µM (inactive).
In the case of `O=C(N/N=C\c1ccc(-c2ccc(Cl)c(Cl)c2)o1)C(=O)N1CCCC1` it was > 11 µM (inactive).
Turning to `O=C(COC(=O)C1CCCC1)Nc1ncc(Cl)cc1Cl`, the EC50 is > 11 µM (inactive).
Regarding `Cc1ccc(-c2[nH]c3cc(C(N)=O)ccc3c(=O)c2O)cc1`, the EC50 is > 11 µM (inactive).
In the case of `Cc1cc(/C=C2\C(=O)NC(=O)N(c3ccc(F)cc3)C2=O)c(C)n1-c1cccc(C(=O)O)c1` it was > 11 µM (inactive); in that of `CCCCNC(=O)c1cc2c(=O)n3cccc(C)c3nc2n(Cc2ccncc2)c1=N`, > 11 µM (inactive).
In the case of `O=c1oc2ccc(Cl)cc2nc1/C=C(\O)c1cccs1` it was > 11 µM (inactive); in that of `CC(=NCCN1CCCCC1)c1c(O)n(-c2ccc(Cl)cc2)c(=O)[nH]c1=O`, > 11 µM (inactive).
In the case of `Cc1cccc(Oc2nc(-c3ccccn3)nc3ccccc23)c1` it was > 11 µM (inactive); in that of `Cc1ccc(C)c(N2CCN(C(=O)c3cc4ccccn4n3)CC2)c1`, > 11 µM (inactive).
On to `Cc1ccc(/C=C/C(=O)O)cc1S(=O)(=O)N1CCCCC1`, for which the EC50 is > 11 µM (inactive).
As for `COc1c(O)cccc1[C@H](O)C1CCN(CCc2ccc(F)cc2)CC1`, the EC50 is > 11 µM (inactive).
In the case of `COc1ccc(C(=O)Nc2nnc(CC(=O)N/N=C/c3ccc(O)cc3O)s2)cc1` it was > 11 µM (inactive); in that of `Cc1cc2nc3ccc(N(C)C)cc3nc2cc1N`, > 11 µM (inactive); in that of `N#CC1=C(N)C2=C(N3CCCCC3)CCCC2C1(C#N)C#N` (configuration not stated), > 11 µM (inactive).
In the case of `CCOC(=O)[C@]1(C#N)[C@@H]2C=CC(C(C)=O)=CN2[C@@H](C(N)=O)[C@@H]1c1ccsc1` it was > 11 µM (inactive); in that of `C=CCOc1cccc(C2C(C(=O)c3cc4ccccc4o3)=C(O)C(=O)N2c2cc(C)on2)c1` (configuration not stated), > 11 µM (inactive); in that of `Cc1ccc(/C=C2\C(=O)NC(=O)N(CC3CCCO3)C2=O)s1` (configuration not stated), > 11 µM (inactive).
In the case of `COc1cc(C2C(C#N)=C(N)OC3=C2C(=O)CC(C)(C)C3)ccc1OCCN1CCOCC1` (configuration not stated), the EC50 is > 11 µM (inactive).
In the case of `O=C(C1=C(O)C(=O)N(c2ncccn2)C1c1cccs1)c1ccco1` (configuration not stated) it was > 11 µM (inactive); in that of `Cc1ccc(S(=O)(=O)c2cc3c(=O)n4ccccc4nc3n(CCc3ccccc3)c2=N)cc1`, > 11 µM (inactive); in that of `O=C(O)c1ccccc1NS(=O)(=O)c1ccc(NNC(=S)Nc2ccc(OC(F)F)cc2)c([N+](=O)[O-])c1`, > 11 µM (inactive).
The same measure for `COc1ccc(N2C(=O)NC(=O)/C(=C/c3ccc4c(c3)Cc3ccccc3-4)C2=O)cc1`: > 11 µM (inactive); for `O=c1[nH]c(=O)n(-c2cccc(Cl)c2)c(O)c1/C=N/c1ccccn1`: > 11 µM (inactive); for `Cc1ccc(/C=N/NC(=O)c2nnn(-c3nonc3N)c2-c2cccs2)cc1`: > 11 µM (inactive).
In the case of `CCCCCN1C=CC=C/C1=C\C=C(C#N)C#N` it was > 11 µM (inactive); in that of `CCOc1cc(/C=C2/C(=O)ON=C2C)ccc1OCc1ccccc1F`, > 11 µM (inactive); in that of `O=C(OCC(=O)c1ccco1)c1ccc2ncsc2c1`, > 11 µM (inactive).
On to `Cc1cc(C(=O)O)ccc1-c1ccc(/C=C2\NC(=O)N(Cc3ccc(F)cc3)C2=O)o1`, for which the EC50 was > 11 µM (inactive).
In the case of `CN1C(=O)c2cccc3c(N)ccc(c23)C1=O` it was > 11 µM (inactive).
In the case of `CN1CC=C2C(C#N)=C(N)C(C#N)(C#N)C(c3ccncc3)C2C1` (configuration not stated) it was > 11 µM (inactive); in that of `COC(=O)c1ccc(-n2c(C)cc(C(=O)CCl)c2C)cc1`, > 11 µM (inactive).
The same measure for `Cc1cccc(N=C2NC(=O)CS2)c1`: > 11 µM (inactive); for `COc1ccc(C2C(C#N)=C(N)OC3=C2C(=O)CC(C)(C)C3)c(OC)c1OC` (configuration not stated): > 11 µM (inactive); for `COc1ccc(-n2nc3c(=O)[nH][nH]c3cc2=O)cc1`: > 11 µM (inactive).
